The values that follow come from patent publication US20260049091A1, “2-(1,8-DIETHYL-1,3,4,9-TETRAHYDROPYRANO[3,4-B]INDOL-1-YL)-1-(4-METHYLPIPERAZIN-1-YL)ETHAN-1-ONE ETODOLAC DERIVATIVE AS EUKARYOTIC ELONGATION FACTOR 2 KINASE (EEF2K) INHIBITOR FOR TARGETED CANCER THERAPY” (BAHCESEHIR UNIVERSITESI, priority 2023, published 2026).

Structures are written as SMILES.

Test [1] addresses T1, eEF2K (Homo sapiens, UniProt O00418).
T1 sequence (O00418 1-725): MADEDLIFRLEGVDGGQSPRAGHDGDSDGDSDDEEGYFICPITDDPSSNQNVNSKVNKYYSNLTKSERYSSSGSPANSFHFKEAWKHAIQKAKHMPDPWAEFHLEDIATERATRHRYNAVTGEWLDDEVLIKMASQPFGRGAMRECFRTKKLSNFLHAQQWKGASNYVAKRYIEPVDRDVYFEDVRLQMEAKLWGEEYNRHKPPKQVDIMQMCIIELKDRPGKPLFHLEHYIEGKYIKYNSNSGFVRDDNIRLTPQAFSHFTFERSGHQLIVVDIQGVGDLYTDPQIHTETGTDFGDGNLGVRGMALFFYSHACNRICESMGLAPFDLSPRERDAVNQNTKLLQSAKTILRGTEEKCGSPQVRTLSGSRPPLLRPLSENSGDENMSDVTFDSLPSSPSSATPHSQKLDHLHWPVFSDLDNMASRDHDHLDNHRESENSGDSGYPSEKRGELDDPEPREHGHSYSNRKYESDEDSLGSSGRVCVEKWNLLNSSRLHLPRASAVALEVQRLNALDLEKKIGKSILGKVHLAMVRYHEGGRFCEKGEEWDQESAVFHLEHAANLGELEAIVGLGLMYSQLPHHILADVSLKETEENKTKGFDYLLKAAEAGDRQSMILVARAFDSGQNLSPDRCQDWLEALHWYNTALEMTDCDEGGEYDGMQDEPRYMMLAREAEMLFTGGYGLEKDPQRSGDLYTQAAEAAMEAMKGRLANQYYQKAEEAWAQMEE
The settings on record: cited from earlier work; for eEF2K inhibition (reported, in words): literature.

The target in test [2] is T1, eEF2K. Nature of the test: Western blot analysis of eEF2K inhibition (p-EF2 Thr56) in MDA-MB-231 cells. In kind it is cell-based. The settings on record: for eEF2K inhibition potential (p-EF2 Thr56): MDA-MB-231 (TNBC) cells, 2.5 to 20 micromolar, 2 h; for eEF2K inhibition, reduced p-EF2 (Thr56) levels: MDA-MB-231 cells, 2.5 micromolar, 2 h treatment. How it is done:
MeOH: distilled water by volume (%) (70:30) was used as the mobile phase for HPLC analysis for the inventive compound and the flow rate was set to 1 mL min^−1. Triple negative breast cancer (TNBC) cell lines (ER-, PR- and HER2-) MDA-MB-231 cells were purchased from the American Type Culture Collection (ATCC) (Manassas, VA, USA). MDA-MB-231 cells were cultured in Dulbecco's modified Eagle's medium (DMEM)/F12 supplemented with 10% FBS (Fetal Bovine Serum) and 100 U mL^−1 penicillin and streptomycin. Specific antibodies (p-EF2 (Thr56) (2331S), eEF2 (2332S), eEF2K (3692S) and GAPDH (5174S)) were purchased from Cell Signaling Technology (CST).
Western blot analysis was carried out according to previously reported studies to evaluate the eEF2K inhibition activity for the synthesized compounds. The synthesized compound was applied to MDA-MB-231 cells in the range of various concentrations from 2.5 to 20 micromolar for 2 h treatment. The expression levels of p-EF2 (Thr56) inhibition and eEF2K activity were determined by using related antibodies such as p-EF2 (Thr56), eEF2 and eEF2K. Glyceraldehyde 3-phosphate dehydrogenase (GAPDH) was used as a loading control.
To determine the effects of the synthesized compounds in inhibiting eEF2K activity in TNBC, MDA-MB-231 cells, we performed western blot analysis at concentrations ranging from 2.5 micromolar to 20 micromolar in a dose-dependent manner. eEF2K inhibition was detected by decreased phosphorylation levels of EF2 (p-EF2-Thr-56), a direct downstream substrate of the enzyme.

On to `Cc1cc(C=C2C(=O)C=CC2=O)cc(C)c1O` [TX1918], for which the “concentration reported to inhibit eEF2K” value in test [1] (literature [44-46]) was 10 µM. In test [1], the “eEF2K inhibition (reported, in words)” value is given as “did not show significant eEF2K inhibition”. Regarding `CCc1cccc2c3c([nH]c12)C(CC)(CC(=O)N1CCN(C)CC1)OCC3` (stereo not shown) [Inventive compound, 2-(1,8-diethyl-1,3,4,9-tetrahydropyrano [3,4-b]indol-1-yl)-1-(4-methylpiperazin-1-yl) ethan-1-one], in test [2], the “eEF2K inhibition potential (p-EF2 Thr56)” value is given as “high inhibition potential” and the “eEF2K inhibition, reduced p-EF2 (Thr56) levels” value is “highest phospho-eEF2 (Thr56) inhibition”. The “eEF2K inhibition, reduced p-EF2 (Thr56) levels” value in test [2] (listed as compound of the invention) is “marked inhibition of eEF2K”.

For `CCCCCCCCCCCCCCCCn1cc[n+](Cc2ccccc2)c1C.[I-]` [NH125], the “eEF2K inhibition (reported, in words)” value in test [1] is “does not inhibit EF2K but rather increases eEF2 phosphorylation”. Turning to `CCc1cccc2c3c([nH]c12)C(CC)(CC(=O)O)OCC3` (racemic) [Etodolac, (R,S)-2-[1,8-diethyl-1,3,4-tetrahydropyrano [3,4-b]indol-1-yl]acetic acid], in test [2], the “eEF2K inhibition potential (p-EF2 Thr56)” value was “did not show any inhibition potential”.
